From PubChem BioAssay (NCI)
“And” between values parts separate entries of the source, which are not always exact repeats. Identical values can stand only once.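 Method: 48-hour compound exposure of cells in 96-well plates, five concentrations, linear interpolation of endpoints. The concentration for 50% growth inhibition is given as GI50. TGI is the concentration that stops growth completely.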

How the values were obtained:
Assay in all cases: NCI tumour cell line growth inhibition, 48 h
SR leukemia = system: SR leukemia
OVCAR-5 ovarian = system: OVCAR-5 ovarian
IGROV1 ovarian = system: IGROV1 ovarian
OVCAR-8 ovarian = system: OVCAR-8 ovarian
SF-539 CNS = system: SF-539 CNS
786-0 renal = system: 786-0 renal
CCRF-CEM leukemia = system: CCRF-CEM leukemia
LOX IMVI melanoma = system: LOX IMVI melanoma
PC-3 prostate = system: PC-3 prostate
DU-145 prostate = system: DU-145 prostate

## CC12CC3(C)CC(C)(C1)CC(N=[N+]=[N-])(C2)C3
SR leukemia
  TGI: > 100 µM
OVCAR-5 ovarian
  TGI: > 100 µM
IGROV1 ovarian
  TGI: > 100 µM
OVCAR-8 ovarian
  TGI: > 100 µM
SF-539 CNS
  TGI: > 100 µM
786-0 renal
  TGI: > 100 µM
CCRF-CEM leukemia
  TGI: > 100 µM
LOX IMVI melanoma
  TGI: > 100 µM

## O=C(c1ccccc1)c1c(CC(O)c2cccnc2)n(C(=O)c2ccccc2)c2ccccc12 (configuration not stated)
SR leukemia
  TGI: 35.1 µM
OVCAR-5 ovarian
  TGI: 37.6 µM
IGROV1 ovarian
  TGI: 55.5 µM
OVCAR-8 ovarian
  TGI: > 100 µM
SF-539 CNS
  TGI: 30.6 µM
786-0 renal
  TGI: 99.4 µM
CCRF-CEM leukemia
  TGI: 63.4 µM

## O=C1c2ccccc2N2OC3(N4CCCC4)CCCC3C12c1ccccc1 (configuration not stated)
SR leukemia
  TGI: > 100 µM
IGROV1 ovarian
  TGI: > 100 µM
OVCAR-8 ovarian
  TGI: > 100 µM
SF-539 CNS
  TGI: > 100 µM
786-0 renal
  TGI: > 100 µM
CCRF-CEM leukemia
  TGI: > 100 µM

## C=C(C)C1CC2C(C)=C(OC(C)=O)C1n1c(=O)c3cc4ccccc4cc3c(=O)n12 (configuration not stated)
SR leukemia
  TGI: > 93 µM
OVCAR-5 ovarian
  TGI: > 100 µM
IGROV1 ovarian
  TGI: > 100 µM
OVCAR-8 ovarian
  TGI: > 100 µM
SF-539 CNS
  TGI: > 100 µM
786-0 renal
  TGI: > 100 µM
LOX IMVI melanoma
  TGI: > 100 µM

## Cc1cc(N(CCNc2ccnc3cc(Cl)ccc23)Cc2ccc3c(c2)OCO3)nc(N2CCN(C)CC2)n1
SR leukemia
  GI50: 1.5 µM
  TGI: 4.43 µM
OVCAR-5 ovarian
  GI50: 5.5 µM
  TGI: 18.3 µM
IGROV1 ovarian
  GI50: 3.09 µM
  TGI: 12.7 µM
OVCAR-8 ovarian
  GI50: 3.18 µM
  TGI: 11.2 µM
SF-539 CNS
  GI50: 1.78 µM
  TGI: 3.33 µM
PC-3 prostate
  GI50: 4.59 µM
  TGI: 17.7 µM
786-0 renal
  GI50: 1.59 µM
  TGI: 3.29 µM
CCRF-CEM leukemia
  GI50: 2.98 µM
  TGI: 9.31 µM
LOX IMVI melanoma
  GI50: 1.79 µM
  TGI: 3.66 µM

## CC(C)N(C(C)C)[PH+]1O[PH+](N(C(C)C)C(C)C)O[PH+](N(C(C)C)C(C)C)O[PH+](N(C(C)C)C(C)C)O[PH+](N(C(C)C)C(C)C)O1.[C-]#[O+].[C-]#[O+].[C-]#[O+].[C-]#[O+].[C-]#[O+].[C-]#[O+].[C-]#[O+].[Cr].[Cr] (configuration not stated)
OVCAR-5 ovarian
  GI50: > 100 µM
  TGI: > 100 µM
IGROV1 ovarian
  GI50: > 100 µM
  TGI: > 100 µM
OVCAR-8 ovarian
  GI50: > 100 µM
  TGI: > 100 µM
SF-539 CNS
  GI50: > 100 µM
  TGI: > 100 µM
786-0 renal
  GI50: > 100 µM
  TGI: > 100 µM
CCRF-CEM leukemia
  GI50: > 100 µM
  TGI: > 100 µM
LOX IMVI melanoma
  GI50: > 100 µM
  TGI: > 100 µM

## O=[N+]([O-])c1ccc(N=Nc2c(O)[nH]c3ccc([N+](=O)[O-])cc23)cc1
SR leukemia
  TGI: > 100 µM
IGROV1 ovarian
  TGI: > 100 µM
OVCAR-8 ovarian
  TGI: 35 µM
SF-539 CNS
  TGI: 33.4 µM
786-0 renal
  TGI: 17 µM
CCRF-CEM leukemia
  TGI: > 100 µM
LOX IMVI melanoma
  TGI: > 100 µM

## COc1ccc(C(C2=C(C)C(=O)c3ccccc3C2=O)c2ccc(C(C)C)cc(=O)c2O)cc1 (configuration not stated)
SR leukemia
  TGI: 21.3 µM
OVCAR-5 ovarian
  TGI: 7.53 µM
IGROV1 ovarian
  TGI: 12.6 µM
OVCAR-8 ovarian
  TGI: 45.7 µM
SF-539 CNS
  TGI: 5.8 µM
786-0 renal
  TGI: 6.26 µM
CCRF-CEM leukemia
  TGI: > 100 µM
LOX IMVI melanoma
  TGI: 17.6 µM

## O=C(C(=O)c1ccc(Cc2ccc(C(=O)C(=O)c3ccccc3)cc2)cc1)c1ccccc1
OVCAR-5 ovarian
  TGI: > 100 µM
IGROV1 ovarian
  TGI: > 100 µM
OVCAR-8 ovarian
  TGI: > 100 µM
SF-539 CNS
  TGI: > 100 µM
786-0 renal
  TGI: > 100 µM
CCRF-CEM leukemia
  TGI: > 100 µM
LOX IMVI melanoma
  TGI: > 100 µM

## CC(=O)N(CCN)CCN
SR leukemia
  TGI: > 10 µM
OVCAR-8 ovarian
  TGI: > 10 µM
786-0 renal
  TGI: > 10 µM
CCRF-CEM leukemia
  TGI: > 10 µM
LOX IMVI melanoma
  TGI: > 10 µM

## COc1ccc(OC)c(-c2cc(-c3ccccc3)nn2-c2ccc(S(=O)(=O)NC(C)=O)cc2)c1
SR leukemia
  GI50: 2.38 µM
  TGI: > 100 µM
OVCAR-5 ovarian
  GI50: 16.9 µM
  TGI: 31.3 µM
IGROV1 ovarian
  GI50: 27.4 µM
  TGI: > 100 µM
OVCAR-8 ovarian
  GI50: 5.99 µM
  TGI: 62.1 µM
SF-539 CNS
  GI50: 28.1 µM
  TGI: 60.4 µM
PC-3 prostate
  GI50: 6.08 µM
  TGI: 20.6 µM
786-0 renal
  GI50: 10.8 µM
  TGI: 23.4 µM
DU-145 prostate
  GI50: 17.9 µM
  TGI: 36.9 µM
CCRF-CEM leukemia
  GI50: 2.13 µM
  TGI: 6.55 µM

## O=C(CC(C(=O)c1cccs1)c1ccc2c(c1)OCO2)c1ccc(Br)cc1 (configuration not stated)
SR leukemia
  TGI: > 100 µM
IGROV1 ovarian
  TGI: > 100 µM
OVCAR-8 ovarian
  TGI: > 100 µM
PC-3 prostate
  TGI: > 100 µM
786-0 renal
  TGI: > 100 µM
DU-145 prostate
  TGI: > 100 µM
CCRF-CEM leukemia
  TGI: > 100 µM

## CN1C2CC(C#N)C1C=CC2=O (configuration not stated)
SR leukemia
  GI50: 24.2 µM and 86.1 µM
  TGI: > 100 µM
OVCAR-5 ovarian
  GI50: 19.6 µM and > 100 µM
  TGI: 37.3 µM and > 100 µM
IGROV1 ovarian
  GI50: 42.8 µM and > 100 µM
  TGI: > 100 µM
OVCAR-8 ovarian
  GI50: 24.5 µM and > 100 µM
  TGI: 70.9 µM and > 100 µM
SF-539 CNS
  GI50: 18.6 µM and > 100 µM
  TGI: 43.2 µM and > 100 µM
PC-3 prostate
  GI50: 26.3 µM and > 100 µM
  TGI: 92.1 µM and > 100 µM
786-0 renal
  GI50: 17.4 µM and > 100 µM
  TGI: 42.6 µM and > 100 µM
DU-145 prostate
  GI50: 22.8 µM and 58.9 µM
  TGI: 61.1 µM and > 100 µM
CCRF-CEM leukemia
  TGI: 29.9 µM and > 100 µM

## Cc1nc2c(n1CC(C)(C)C)C(=O)c1ccccc1C2=O
SR leukemia
  TGI: > 100 µM
IGROV1 ovarian
  TGI: > 100 µM
OVCAR-8 ovarian
  TGI: > 100 µM
SF-539 CNS
  TGI: > 100 µM
786-0 renal
  TGI: > 100 µM
CCRF-CEM leukemia
  TGI: > 100 µM
LOX IMVI melanoma
  TGI: > 100 µM

## Clc1ccc([O][In]([O]c2ccc(Cl)cn2)[O]c2ccc(Cl)cn2)nc1
SR leukemia
  GI50: > 100 µM
  TGI: > 100 µM
OVCAR-5 ovarian
  GI50: > 100 µM
  TGI: > 100 µM
IGROV1 ovarian
  GI50: > 100 µM
  TGI: > 100 µM
OVCAR-8 ovarian
  GI50: > 100 µM
  TGI: > 100 µM
SF-539 CNS
  GI50: > 100 µM
  TGI: > 100 µM
786-0 renal
  GI50: > 100 µM
  TGI: > 100 µM
CCRF-CEM leukemia
  GI50: > 100 µM
  TGI: > 100 µM
LOX IMVI melanoma
  GI50: > 100 µM
  TGI: > 100 µM

## Fc1cccc(Cl)c1C1SCc2nc3ccccc3n21 (configuration not stated)
SR leukemia
  TGI: 54.4 µM
OVCAR-5 ovarian
  TGI: > 100 µM
IGROV1 ovarian
  TGI: > 100 µM
OVCAR-8 ovarian
  TGI: > 100 µM
SF-539 CNS
  TGI: 44.4 µM
786-0 renal
  TGI: > 100 µM
CCRF-CEM leukemia
  TGI: > 100 µM
LOX IMVI melanoma
  TGI: 38 µM

## Cc1cc(Cl)ccc1NC(=O)C(=O)Cc1nc2ccc(C(=O)c3ccccc3)cc2[nH]c1=O
SR leukemia
  TGI: > 100 µM
IGROV1 ovarian
  TGI: > 100 µM
OVCAR-8 ovarian
  TGI: > 100 µM
SF-539 CNS
  TGI: > 100 µM
786-0 renal
  TGI: > 100 µM
CCRF-CEM leukemia
  TGI: > 100 µM
LOX IMVI melanoma
  TGI: > 100 µM

## CSc1ccc(C2=Nn3c(nnc3-c3ccc(F)c(Cl)c3)SC2)cc1
OVCAR-5 ovarian
  GI50: 39.5 µM
  TGI: > 100 µM
IGROV1 ovarian
  GI50: 13.1 µM
  TGI: 44.4 µM
OVCAR-8 ovarian
  GI50: 22.2 µM
  TGI: > 100 µM
SF-539 CNS
  GI50: 10.1 µM
  TGI: 26.7 µM
PC-3 prostate
  GI50: 4.67 µM
  TGI: > 100 µM
786-0 renal
  GI50: 13.5 µM
  TGI: 32 µM
DU-145 prostate
  GI50: 34.2 µM
  TGI: > 100 µM
CCRF-CEM leukemia
  GI50: 11.1 µM
  TGI: > 100 µM
LOX IMVI melanoma
  GI50: 10.8 µM
  TGI: 43.1 µM

## COc1cc(C2c3cc4c(cc3[C@@H](Nc3ccc(N(C)C)cc3)[C@H]3COC(=O)C23)OCO4)cc(OC)c1O (some centres not stated)
SR leukemia
  TGI: 0.924 µM
OVCAR-5 ovarian
  GI50: 1.96 µM
  TGI: 6.21 µM and 16.2 µM
IGROV1 ovarian
  GI50: 4.57 µM
  TGI: 14.7 µM and 19.9 µM
OVCAR-8 ovarian
  GI50: 1.78 µM
  TGI: 7.97 µM and 24.9 µM
SF-539 CNS
  GI50: 0.572 µM
  TGI: 1.62 µM and 2.41 µM
786-0 renal
  GI50: 0.362 µM
  TGI: 1.37 µM and 4.91 µM
LOX IMVI melanoma
  TGI: 17.6 µM
